Experimental data: US8258134B2, “Pyridazinone glucokinase activators” (Hoffmann-La Roche Inc., priority 2008, dated 2012)

Target: T1, Recombinant human liver GK1 (GST-GK) (Homo sapiens, UniProt P35557)
T1 construct: made in house; host or cells: E. coli
T1 sequence (P35557 1-466 isoform P35557-2): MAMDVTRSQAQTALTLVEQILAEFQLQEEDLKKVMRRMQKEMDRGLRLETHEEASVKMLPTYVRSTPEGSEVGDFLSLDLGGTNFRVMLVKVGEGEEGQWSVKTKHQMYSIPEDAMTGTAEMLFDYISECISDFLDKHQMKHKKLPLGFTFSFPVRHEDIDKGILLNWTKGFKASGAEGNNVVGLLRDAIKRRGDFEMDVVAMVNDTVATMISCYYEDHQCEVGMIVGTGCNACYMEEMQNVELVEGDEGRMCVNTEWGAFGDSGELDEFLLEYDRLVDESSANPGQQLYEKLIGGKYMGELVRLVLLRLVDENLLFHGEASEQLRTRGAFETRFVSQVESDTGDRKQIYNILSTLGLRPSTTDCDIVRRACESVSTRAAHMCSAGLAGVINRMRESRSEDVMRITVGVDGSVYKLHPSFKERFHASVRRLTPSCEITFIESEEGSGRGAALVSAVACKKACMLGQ
Experiment: Glucokinase in vitro assay (G6PDH-coupled NADH generation, OD340)
Format: biochemical
Conditions: 30 uM test compound, 5 mM D-glucose
Summary of the method: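 Activation readout is SC1.5, the activator concentration raising GK rate (OD340/min) 50% above 10% DMSO controls. The coupled reaction used GST-GK1 from E. coli, 5 mM glucose, 1 mM ATP, 1.8 mM NAD and 25 mM Hepes pH 7.1 at 30° C. Enzyme was added after a 10 min compound pre-incubation.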

Compound	fold activation @ 30 uM [fold]
Cc1cc(NC(=O)C(CC2CCOCC2)n2ncc(Oc3c(F)cccc3F)cc2=O)nn1CC(C)O (centres unmarked) [Example 132, 2-[4-(2,6-Difluoro-phenoxy)-6-oxo-6H-pyridazin-1-yl]-N-[1-(2-hydroxy-propyl)-5-methyl-1H-pyrazol-3-yl]-3-(tetrahydro-pyran-4-yl)-propionamide]	1.18

Same assay, conditions: 5 mM D-glucose, 30° C., pH 7.1, 10% DMSO

Compound	SC1.5 average (concentration of activator that produced a 50% increase in the activity of GK) [µM]
CC(C)(O)Cn1ccc(NC(=O)C(CC2CCC2)n2ncc(Oc3c(F)cccc3F)cc2=O)n1 (centres unmarked) [Example 49, 3-Cyclobutyl-2-[4-(2,6-difluoro-phenoxy)-6-oxo-6H-pyridazin-1-yl]-N-[1-(2-hydroxy-2-methyl-propyl)-1H-pyrazol-3-yl]-propionamide]	0.305
CC(C)(O)Cn1ccc(NC(=O)C(CC2CCCC2)n2ncc(Oc3cccc4ncccc34)cc2=O)n1 (centres unmarked) [Example 38, 3-Cyclopentyl-N-[1-(2-hydroxy-2-methyl-propyl)-1H-pyrazol-3-yl]-2-[6-oxo-4-(quinolin-5-yloxy)-6H-pyridazin-1-yl]-propionamide]	0.776
Cc1cc(NC(=O)C(CC2CCOCC2)n2ncc(Oc3c(F)cccc3F)cc2=O)nn1CC(C)O (centres unmarked) [Example 132, 2-[4-(2,6-Difluoro-phenoxy)-6-oxo-6H-pyridazin-1-yl]-N-[1-(2-hydroxy-propyl)-5-methyl-1H-pyrazol-3-yl]-3-(tetrahydro-pyran-4-yl)-propionamide]	> 30
COC(=O)c1ccc(NC(=O)[C@@H](CC2CCCC2)n2ncc(Oc3c(F)cccc3F)cc2=O)nc1 [Example 68B, 6-{(R)-3-Cyclopentyl-2-[4-(2,6-difluoro-phenoxy)-6-oxo-6H-pyridazin-1-yl]-propionylamino}-nicotinic acid methyl ester]	0.597
CC(C)(O)Cn1ccc(NC(=O)C(CC2CCCC2)n2ncc(OCC3CCCC3)c(Cl)c2=O)n1 (centres unmarked) [Example 10, 2-(5-Chloro-4-cyclopentylmethoxy-6-oxo-6H-pyridazin-1-yl)-3-cyclopentyl-N-[1-(2-hydroxy-2-methyl-propyl)-1H-pyrazol-3-yl]-propionamide]	11.438
O=C(Nc1ccn(C[C@@H](O)CO)n1)C(Cc1c(F)cccc1F)n1ncc(Oc2c(F)cccc2F)cc1=O (stereo partly drawn) [Example 108, 2-[4-(2,6-Difluoro-phenoxy)-6-oxo-6H-pyridazin-1-yl]-3-(2,6-difluoro-phenyl)-N-[1-((R)-2,3-dihydroxy-propyl)-1H-pyrazol-3-yl]-propionamide]	0.521
O=C(Nc1ccn(C[C@@H](O)CO)n1)C(CC1CCCC1)n1ncc(Oc2cccc(Cl)c2Cl)cc1=O (stereo partly drawn) [Example 92, 3-Cyclopentyl-2-[4-(2,3-dichloro-phenoxy)-6-oxo-6H-pyridazin-1-yl]-N-[1-((R)-2,3-dihydroxy-propyl)-1H-pyrazol-3-yl]-propionamide]	0.135
CC(C)(O)Cn1ccc(NC(=O)[C@@H](CC2CCCC2)n2ncc(Oc3cccc4cnccc34)cc2=O)n1 [Example 37B, (R)-3-Cyclopentyl-N-[1-(2-hydroxy-2-methyl-propyl)-1H-pyrazol-3-yl]-2-[4-(isoquinolin-5-yloxy)-6-oxo-6H-pyridazin-1-yl]-propionamide]	18.488
Cc1ccccc1Oc1cnn(C(CC2CCCC2)C(=O)Nc2ccc(C(=O)O)cn2)c(=O)c1 (centres unmarked) [Example 74, 6-[3-Cyclopentyl-2-(6-oxo-4-o-tolyloxy-6H-pyridazin-1-yl)-propionylamino]-nicotinic acid]	0.067
Cc1ccc(F)c(Oc2cnn(C(CC3CCCC3)C(=O)Nc3ccn(C[C@@H](O)CO)n3)c(=O)c2)c1F (stereo partly drawn) [Example 107, 3-Cyclopentyl-2-[4-(2,6-difluoro-3-methyl-phenoxy)-6-oxo-6H-pyridazin-1-yl]-N-[1-((R)-2,3-dihydroxy-propyl)-1H-pyrazol-3-yl]-propionamide]	0.042
